From patent US20130157954A1, “METHODS FOR TREATMENT OR PROPHYLAXIS OF KIDNEY OR LIVER DYSFUNCTION” (NPS PHARMACEUTICALS, INC., priority 2010, published 2013)

Assay: Example 1: liver biomarkers (total bilirubin, ALT, AST, ALP) in short bowel syndrome patients, every four weeks for 24 weeks; also sorted by >5% change from baseline
Assay type: in vivo, Human
Details: for ALT (SGPT) change from baseline >5%, percent of patients / ALT (SGPT) change from baseline −5% <= and <=5%, number of patients / ALT (SGPT) change from baseline −5% <= and <=5%, percent of patients / AST (SGOT) change from baseline <−5%, number of patients / AST (SGOT) change from baseline <−5%, percent of patients / AST (SGOT) change from baseline >5%, number of patients / AST (SGOT) change from baseline >5%, percent of patients / AST (SGOT) change from baseline −5% <= and <=5%, number of patients / AST (SGOT) change from baseline −5% <= and <=5%, percent of patients / TOTAL BILIRUBIN change from baseline <−5%, number of patients / TOTAL BILIRUBIN change from baseline <−5%, percent of patients / TOTAL BILIRUBIN change from baseline >5%, number of patients / TOTAL BILIRUBIN change from baseline >5%, percent of patients / TOTAL BILIRUBIN change from baseline −5% <= and <=5%, number of patients / TOTAL BILIRUBIN change from baseline −5% <= and <=5%, percent of patients / ALKALINE PHOSPHATASE change from baseline <−5%, number of patients / ALKALINE PHOSPHATASE change from baseline <−5%, percent of patients / ALKALINE PHOSPHATASE change from baseline >5%, number of patients / ALKALINE PHOSPHATASE change from baseline >5%, percent of patients / ALKALINE PHOSPHATASE change from baseline −5% <= and <=5%, number of patients / ALKALINE PHOSPHATASE change from baseline −5% <= and <=5%, percent of patients / ALT (SGPT) change from baseline <−5%, number of patients / ALT (SGPT) change from baseline <−5%, percent of patients / ALT (SGPT) change from baseline >5%, number of patients: 0.1 mg/kg/day
Method: Human patients with short bowel syndrome were divided into three groups: a control group (16 total individuals) to receive placebo, an experimental group (35 total individuals) to receive teduglutide at 0.05 mg/kg/day throughout the study, and an experimental group (32 total individuals) to receive teduglutide at 0.1 mg/kg/day throughout the study. Patients were treated by subcutaneous injection of placebo or the appropriate dose of teduglutide. As individuals with short bowel syndrome are likely to experience associated liver and kidney disease, known biomarkers of liver and kidney function were monitored every four weeks, for 24 weeks. The liver biomarkers tested included total bilirubin, ALT and AST and ALP. The kidney biomarkers tested included urea nitrogen, creatinine and GFR. Before administration of placebo or teduglutide, diagnostic biomarker levels were tested to establish a baseline for each individual.
To visualize the effect of GLP-2 on the levels of the diagnostic biomarkers, the average change from baseline was calculated for the placebo and teduglutide treated groups for each visit after a baseline was established. The average change from baseline of each group is depicted in FIGS. 1-7. The numerical figures for each diagnostic biomarker at each time point are depicted in Table 1.
The efficacy of teduglutide in treating liver dysfunction was further tested by sorting the data into two groups: individuals with abnormal baseline values of liver diagnostic biomarkers; and individuals with normal baseline values of liver diagnostic biomarkers. The mean diagnostic biomarker change from baseline for these two groups is shown for ALT (FIGS. 5 and 6) and AST (FIGS. 7 and 8). […] These changes were significant when compared to baseline levels for the group, and when compared to placebo (see FIGS. 5 and 7).
The raw data for this sorting is reproduced in Table 2 below.

SMILES: CC[C@H](C)[C@H](NC(=O)[C@H](Cc1ccccc1)NC(=O)[C@H](CC(=O)O)NC(=O)[C@H](CCCNC(=N)N)NC(=O)[C@H](C)NC(=O)[C@H](C)NC(=O)[C@H](CC(C)C)NC(=O)[C@H](CC(N)=O)NC(=O)[C@H](CC(=O)O)NC(=O)[C@H](CC(C)C)NC(=O)[C@@H](NC(=O)[C@@H](NC(=O)[C@H](CC(N)=O)NC(=O)[C@H](CCSC)NC(=O)[C@H](CCC(=O)O)NC(=O)[C@H](CC(=O)O)NC(=O)[C@H](CO)NC(=O)[C@H](Cc1ccccc1)NC(=O)[C@H](CO)NC(=O)CNC(=O)[C@H](CC(=O)O)NC(=O)CNC(=O)[C@@H](N)Cc1c[nH]cn1)[C@@H](C)O)[C@@H](C)CC)C(=O)N[C@@H](CC(N)=O)C(=O)N[C@@H](Cc1c[nH]c2ccccc12)C(=O)N[C@@H](CC(C)C)C(=O)N[C@H](C(=O)N[C@@H](CCC(N)=O)C(=O)N[C@H](C(=O)N[C@@H](CCCCN)C(=O)N[C@H](C(=O)N[C@H](C(=O)N[C@@H](CC(=O)O)C(=O)O)[C@@H](C)O)[C@@H](C)CC)[C@@H](C)O)[C@@H](C)CC [teduglutide]
- ALT (SGPT) change from baseline >5%, percent of patients (week 12): (21.9%)
- ALT (SGPT) change from baseline −5% <= and <=5%, number of patients (week 12): 2
- ALT (SGPT) change from baseline −5% <= and <=5%, percent of patients (week 12): (6.3%)
- AST (SGOT) change from baseline <−5%, number of patients (week 12): 15
- AST (SGOT) change from baseline <−5%, percent of patients (week 12): (46.9%)
- AST (SGOT) change from baseline >5%, number of patients (week 12): 10
- AST (SGOT) change from baseline >5%, percent of patients (week 12): (31.3%)
- AST (SGOT) change from baseline −5% <= and <=5%, number of patients (week 12): 3
- AST (SGOT) change from baseline −5% <= and <=5%, percent of patients (week 12): (9.4%)
- TOTAL BILIRUBIN change from baseline <−5%, number of patients (week 12): 14
- TOTAL BILIRUBIN change from baseline <−5%, percent of patients (week 12): (43.8%)
- TOTAL BILIRUBIN change from baseline >5%, number of patients (week 12): 9
- TOTAL BILIRUBIN change from baseline >5%, percent of patients (week 12): (28.1%)
- TOTAL BILIRUBIN change from baseline −5% <= and <=5%, number of patients (week 12): 6
- TOTAL BILIRUBIN change from baseline −5% <= and <=5%, percent of patients (week 12): (18.8%)
- ALKALINE PHOSPHATASE change from baseline <−5%, number of patients (week 16): 21
- ALKALINE PHOSPHATASE change from baseline <−5%, percent of patients (week 16): (65.6%)
- ALKALINE PHOSPHATASE change from baseline >5%, number of patients (week 16): 7
- ALKALINE PHOSPHATASE change from baseline >5%, percent of patients (week 16): (21.9%)
- ALKALINE PHOSPHATASE change from baseline −5% <= and <=5%, number of patients (week 16): 2
- ALKALINE PHOSPHATASE change from baseline −5% <= and <=5%, percent of patients (week 16): (6.3%)
- ALT (SGPT) change from baseline <−5%, number of patients (week 16): 19
- ALT (SGPT) change from baseline <−5%, percent of patients (week 16): (59.4%)
- ALT (SGPT) change from baseline >5%, number of patients (week 16): 9
- ALT (SGPT) change from baseline >5%, percent of patients (week 16): (28.1%)
- ALT (SGPT) change from baseline −5% <= and <=5%, number of patients (week 16): 2
- ALT (SGPT) change from baseline −5% <= and <=5%, percent of patients (week 16): (6.3%)
- AST (SGOT) change from baseline <−5%, number of patients (week 16): 18
- AST (SGOT) change from baseline <−5%, percent of patients (week 16): (56.3%)
- AST (SGOT) change from baseline >5%, number of patients (week 16): 8
- AST (SGOT) change from baseline >5%, percent of patients (week 16): (25.0%)
- AST (SGOT) change from baseline −5% <= and <=5%, number of patients (week 16): 3
- AST (SGOT) change from baseline −5% <= and <=5%, percent of patients (week 16): (9.4%)
- TOTAL BILIRUBIN change from baseline <−5%, number of patients (week 16): 14
- TOTAL BILIRUBIN change from baseline <−5%, percent of patients (week 16): (43.8%)
- TOTAL BILIRUBIN change from baseline >5%, number of patients (week 16): 6
- TOTAL BILIRUBIN change from baseline >5%, percent of patients (week 16): (18.8%)
- TOTAL BILIRUBIN change from baseline −5% <= and <=5%, number of patients (week 16): 8
- TOTAL BILIRUBIN change from baseline −5% <= and <=5%, percent of patients (week 16): (25.0%)
- ALKALINE PHOSPHATASE change from baseline <−5%, number of patients (week 20): 19
- ALKALINE PHOSPHATASE change from baseline <−5%, percent of patients (week 20): (59.4%)
- ALKALINE PHOSPHATASE change from baseline >5%, number of patients (week 20): 9
- ALKALINE PHOSPHATASE change from baseline >5%, percent of patients (week 20): (28.1%)
- ALKALINE PHOSPHATASE change from baseline −5% <= and <=5%, number of patients (week 20): 1
- ALKALINE PHOSPHATASE change from baseline −5% <= and <=5%, percent of patients (week 20): (3.1%)
- ALT (SGPT) change from baseline <−5%, number of patients (week 20): 19
- ALT (SGPT) change from baseline <−5%, percent of patients (week 20): (59.4%)
- ALT (SGPT) change from baseline >5%, number of patients (week 20): 8
- ALT (SGPT) change from baseline >5%, percent of patients (week 20): (25.0%)
- ALT (SGPT) change from baseline −5% <= and <=5%, number of patients (week 20): 2
- ALT (SGPT) change from baseline −5% <= and <=5%, percent of patients (week 20): (6.3%)
- AST (SGOT) change from baseline <−5%, number of patients (week 20): 16
- AST (SGOT) change from baseline <−5%, percent of patients (week 20): (50.0%)
- AST (SGOT) change from baseline >5%, number of patients (week 20): 9
- AST (SGOT) change from baseline >5%, percent of patients (week 20): (28.1%)
- AST (SGOT) change from baseline −5% <= and <=5%, number of patients (week 20): 3
- AST (SGOT) change from baseline −5% <= and <=5%, percent of patients (week 20): (9.4%)
- TOTAL BILIRUBIN change from baseline <−5%, number of patients (week 20): 14
- TOTAL BILIRUBIN change from baseline <−5%, percent of patients (week 20): (43.8%)
- TOTAL BILIRUBIN change from baseline >5%, number of patients (week 20): 9
- TOTAL BILIRUBIN change from baseline >5%, percent of patients (week 20): (28.1%)
- TOTAL BILIRUBIN change from baseline −5% <= and <=5%, number of patients (week 20): 6
- TOTAL BILIRUBIN change from baseline −5% <= and <=5%, percent of patients (week 20): (18.8%)
- ALKALINE PHOSPHATASE change from baseline <−5%, number of patients (week 24): 20
- ALKALINE PHOSPHATASE change from baseline <−5%, percent of patients (week 24): (62.5%)
- ALKALINE PHOSPHATASE change from baseline >5%, number of patients (week 24): 5
- ALKALINE PHOSPHATASE change from baseline >5%, percent of patients (week 24): (15.6%)
- ALKALINE PHOSPHATASE change from baseline −5% <= and <=5%, number of patients (week 24): 4
- ALKALINE PHOSPHATASE change from baseline −5% <= and <=5%, percent of patients (week 24): (12.5%)
- ALT (SGPT) change from baseline <−5%, number of patients (week 24): 18
- ALT (SGPT) change from baseline <−5%, percent of patients (week 24): (56.3%)
- ALT (SGPT) change from baseline >5%, number of patients (week 24): 11
- ALT (SGPT) change from baseline >5%, percent of patients (week 24): (34.4%)
- ALT (SGPT) change from baseline −5% <= and <=5%, number of patients (week 24): 0
- ALT (SGPT) change from baseline −5% <= and <=5%, percent of patients (week 24): (0.0%)
- AST (SGOT) change from baseline <−5%, number of patients (week 24): 15
- AST (SGOT) change from baseline <−5%, percent of patients (week 24): (46.9%)
- AST (SGOT) change from baseline >5%, number of patients (week 24): 11
- AST (SGOT) change from baseline >5%, percent of patients (week 24): (34.4%)
- AST (SGOT) change from baseline −5% <= and <=5%, number of patients (week 24): 3
- AST (SGOT) change from baseline −5% <= and <=5%, percent of patients (week 24): (9.4%)
- TOTAL BILIRUBIN change from baseline <−5%, number of patients (week 24): 11
- TOTAL BILIRUBIN change from baseline <−5%, percent of patients (week 24): (34.4%)
- TOTAL BILIRUBIN change from baseline >5%, number of patients (week 24): 10
- TOTAL BILIRUBIN change from baseline >5%, percent of patients (week 24): (31.3%)
- TOTAL BILIRUBIN change from baseline −5% <= and <=5%, number of patients (week 24): 6
- TOTAL BILIRUBIN change from baseline −5% <= and <=5%, percent of patients (week 24): (18.8%)
- fraction of individuals with a decrease of more than 5% in ALT vs placebo (beginning at 4 weeks after the commencement of treatment): greater fraction of individuals experiencing a decrease of more than 5%
- ALT and AST change from baseline in patients with abnormal baseline values (FIGS. 5 and 7) (compared to baseline and compared to placebo): statistically significant improvements
- average level of ALP relative to baseline (FIG. 4) (groups receiving teduglutide): decreased relative to baseline for the entire period of the study
- percent of individuals with an increase of greater than 5% in ALP or ALT vs placebo (groups receiving teduglutide): effective prophylactic against increases in biomarkers associated with liver dysfunction
- individuals experiencing a decrease in ALP greater than 5% from baseline (groups receiving teduglutide, within 4 weeks of the beginning of treatment): roughly 60%
- average decrease in level of ALT compared to baseline (FIG. 1) (groups receiving teduglutide, maintained for the entire duration of the study): about 10 U/L
